Measurements from patent EP4678638A1, “NEW E3 UBIQUITIN LIGASE LIGAND, PROTEIN DEGRADATION AGENT AND USE THEREOF” (priority 2023, dated 2024).
pIC50: −log10 of the molar value. Read-outs that look alike come from different tables or passages of the source.

How the values were obtained:
[1] = tested on: THP-1; experiment: CCK-8 proliferation, THP-1; type: cell-based; settings: Homo sapiens, 72 hours, read-out: Inhibitory activity (IC50) on tumor cell proliferation, THP-1
Description: (§1) The tumor cells used herein were cultured in a cell culture medium listed in table A1 at 37°C in an incubator with 5% CO2. Prior to experimentation, all cell lines used were correctly identified by STR profiling, and tested negative for mycoplasma contamination using a mycoplasma detection kit through routine screenings. Table A1. Tumor cells and cell culture medium used in the present disclosure
(§2) IC50 values of the compounds of the present disclosure (including the compounds in Table 1, and compounds of examples) were measured using the Meilun Cell Counting Kit-8 kit from Dalian Meilun Biotech Co., Ltd. Assay details are as follows: tumor cells were seeded in a 96-well plate at a density listed in Table A2. After 24h, 100 µL of the inoculated cells were treated with 0.5µL of the compounds of the present disclosure (including the compounds in Tables 1 and 2, and compounds of examples) at 10 different successively decreasing concentrations (starting at the highest concentration of 10µM; 5-fold serial dilutions). After the cells were treated with the compounds of the present disclosure for a period of time, the cell viability detection reagent was added to the culture medium for cell viability assessment according to the instructions provided with the CCK-8 kit. […] The growth inhibition of the compounds of the present disclosure on cells was plotted by Prism Graphpad software, and the IC50 values of the compounds of the present disclosure were calculated therefrom. […] Seeding protocol and treatment time for tumor cells

[2] = tested on: MGC-803; experiment: CCK-8 proliferation, MGC-803 (heads: MGC80-3, MGC803); type: cell-based, Human; settings: Homo sapiens, MGC-803; CCK-8; 72 hours; read-out: Inhibitory activity (IC50) on tumor cell proliferation, MGC80-3
How it was run: (§3)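 Cells seeded, then after 24 h treated with 10 concentrations (top 10 µM, 5-fold serial dilution) for a line-specific time at 37°C, 5% CO2. Viability read by CCK-8; IC50 fitted from growth-inhibition curves.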

[3] = tested on: BXPC-3; experiment: CCK-8 proliferation, BXPC-3; type: cell-based; settings: Homo sapiens, 96 hours, read-out: Inhibitory activity (IC50) on tumor cell proliferation, BXPC-3
Description: as §1, §2

[4] = tested on: H520; experiment: CCK-8 proliferation, H520; type: cell-based; settings: Homo sapiens, NCI-H520, 96 hours, read-out: Inhibitory activity (IC50) on tumor cell proliferation, H520
Description: as §1, §2

[5] = tested on: DU-145; experiment: CCK-8 proliferation, DU-145; type: cell-based; settings: Homo sapiens, 96 hours, read-out: Inhibitory activity (IC50) on tumor cell proliferation, DU-145
Description: as §1, §2

[6] = tested on: CCRF-CEM; experiment: CCK-8 proliferation, CCRF-CEM; type: cell-based, Human; settings: Homo sapiens, CCRF-CEM; CCK-8; 96 hours; read-out: Inhibitory activity (IC50) on tumor cell proliferation, CCRF-CEM
How it was run: as §3

[7] = tested on: TMD8; experiment: CCK-8 proliferation, TMD8; type: cell-based; settings: Homo sapiens, read-out: Inhibitory activity (IC50) on tumor cell proliferation, TMD8
Description: as §1, §2

[8] = tested on: SU-DHL-4; experiment: CCK-8 proliferation, SU-DHL-4; type: cell-based; settings: Homo sapiens, 72 hours, read-out: Inhibitory activity (IC50) on tumor cell proliferation, SU-DHL-4
Description: as §1, §2

[9] = tested on: Jurkat; experiment: CCK-8 proliferation, Jurkat; type: cell-based, Human; settings: Homo sapiens, Jurkat; CCK-8; 96 hours; read-out: Inhibitory activity (IC50) on tumor cell proliferation, Jurkat
How it was run: as §3

[10] = target: T1, CDK9 (Homo sapiens, UniProt P50750); experiment: Western blot degradation of CDK9 (MDA-MB-231 Cell); type: cell-based; settings: Table D13
T1 construct: evaluate the effects of the compounds of the present disclosure on the expression of target proteins in cells; endogenous in cells; host or cells: MDA-MB-231
Description: Conventional Western blot assay was performed to evaluate the effects of the compounds of the present disclosure on the expression of target proteins in cells.
(1) Cell Seeding and Protein Harvesting: The selected cells were processed according to the cell seeding procedure and protein harvesting procedure in Table III-2. Table III-2 Cell Seeding and Protein Harvesting Procedures
(2) To the collected supernatant, 5X SDS sample loading buffer was added, followed by denaturation at 95°C for 5 minutes. The denatured samples were then separated by SDS-PAGE electrophoresis on a polyacrylamide gel. Proteins were transferred to a nitrocellulose membrane (0.45 µm NC membrane), blocked with blocking buffer at room temperature for 1 hour, and subjected to antibody incubation and development procedures according to the antibody manufacturer's instructions (Cell Signaling Technology).
Half-Maximal Degradation Concentration value (the drug concentration required for degrading proteins by 50%, abbreviated as DC50) reads method: comparing the grayscale values of Western blot bands from drug-treated samples with those from blank DMSO-treated controls, and identifying the drug concentration range at which the grayscale value is half that of the DMSO-treated control bands.
DC50 values can be calculated using ImageJ software to measure grayscale values of Western blot bands from drug-treated samples. The concentration-response curve is fitted to estimate the drug concentration corresponding to half the grayscale value.
Target protein remaining (%) refers to the percentage of target protein remaining in hPBMC cells after treatment with protein degrader compounds.
Calculation method for target protein remaining (%): Use ImageJ software to measure grayscale values of Western blot bands from drug (protein degrader)-treated samples. The grayscale value of drug-treated bands is divided by that of internal control protein bands, and the resulting quotient is normalized to obtain the relative percentage of remaining target protein after protein degrader treatment.
Target protein degradation rate (%) = 100% - target protein remaining (%).

[11] = target: T2, human Cereblon WT GST-tagged protein (Homo sapiens, UniProt Q96SW2); experiment: CRBN binding, HTRF (CEREBLON BINDING kit); settings: Table II-2, CRBN binding screening, HTRF
T2 construct: purchased CISBIO 64BDCRBNPEH
How it was run: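 After 3 h at room temperature, emission at 665 and 620 nm was measured in a homogeneous time-resolved fluorescence format. Compounds competed with a Thalidomide-Re probe for GST-tagged wild-type human CRBN, which was labelled with a Eu anti-GST antibody.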

[12] = tested on: SU-DHL-6; experiment: CCK-8 proliferation, SU-DHL-6; type: cell-based; settings: Homo sapiens, read-out: Inhibitory activity (IC50) on tumor cell proliferation, SU-DHL-6
Description: as §1, §2

[13] = tested on: H2228; experiment: CCK-8 proliferation, NCI-H2228 (H2228); type: cell-based; settings: Homo sapiens, NCI-H2228, 96 h, read-out: Inhibitory activity (IC50) on tumor cell proliferation, H2228
How it was run: as §3

[14] = tested on: H1975; experiment: CCK-8 proliferation, NCI-H1975 (H1975); type: cell-based, Human; settings: Homo sapiens, NCI-H1975, 96 h, read-out: Inhibitory activity (IC50) on tumor cell proliferation, H1975
How it was run: as §3

[15] = tested on: MM.1R; experiment: CCK-8 proliferation, MM.1R; type: cell-based; settings: 72 h, read-out: Inhibitory activity (IC50) on tumor cell proliferation, MM.1R
How it was run: as §3

[16] = tested on: SW620; experiment: CCK-8 proliferation, SW620; type: cell-based; settings: Homo sapiens, SW-620, 96 h, read-out: Inhibitory activity (IC50) on tumor cell proliferation, SW620
How it was run: as §3

[17] = tested on: PC-9; experiment: CCK-8 proliferation, PC-9; type: cell-based, Human; settings: Homo sapiens, PC-9, 96 h, read-out: Inhibitory activity (IC50) on tumor cell proliferation, PC-9
How it was run: as §3

T1 sequence (P50750 whole entry): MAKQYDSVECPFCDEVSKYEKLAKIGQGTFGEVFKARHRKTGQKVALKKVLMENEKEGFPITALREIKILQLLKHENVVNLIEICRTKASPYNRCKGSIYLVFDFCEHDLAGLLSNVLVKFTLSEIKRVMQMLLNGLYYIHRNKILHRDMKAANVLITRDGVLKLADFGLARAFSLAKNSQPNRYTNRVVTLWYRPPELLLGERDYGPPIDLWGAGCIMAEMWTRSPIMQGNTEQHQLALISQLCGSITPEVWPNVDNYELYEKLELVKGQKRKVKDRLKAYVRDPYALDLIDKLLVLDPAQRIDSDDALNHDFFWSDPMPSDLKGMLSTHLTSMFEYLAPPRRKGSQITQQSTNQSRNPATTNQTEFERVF
T2 sequence (Q96SW2 whole entry): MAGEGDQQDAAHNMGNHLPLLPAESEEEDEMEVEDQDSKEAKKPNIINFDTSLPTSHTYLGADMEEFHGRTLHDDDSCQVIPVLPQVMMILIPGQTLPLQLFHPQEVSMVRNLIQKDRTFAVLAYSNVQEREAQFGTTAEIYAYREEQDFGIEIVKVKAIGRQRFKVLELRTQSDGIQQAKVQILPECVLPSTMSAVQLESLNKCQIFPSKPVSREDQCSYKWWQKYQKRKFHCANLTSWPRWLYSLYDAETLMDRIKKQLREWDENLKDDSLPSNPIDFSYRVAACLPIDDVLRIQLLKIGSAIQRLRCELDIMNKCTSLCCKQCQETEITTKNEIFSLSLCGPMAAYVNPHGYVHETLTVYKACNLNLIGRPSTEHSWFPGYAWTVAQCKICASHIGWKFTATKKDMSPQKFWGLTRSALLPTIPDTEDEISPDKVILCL

Row | SMILES | pIC50 [1] | pIC50 [2] | pIC50 [3] | pIC50 [4] | pIC50 [5] | pIC50 ([7]; TMD8, CCK-8, 72 hours) | Degradation of substrate protein CDK9 (substrate protein remaining %) [10] | also measured
1 | Cc1ccc(-c2c(C)noc2C)cc1N(CC1CCN(Cc2ccc(N3CCC(=O)NC3=O)cc2)CC1)c1ccc(C2(C#N)CC2)cc1 [GT-04844, 1-(4-((5-(3,5-dimethylisoxazol-4-yl)-2-methylphenyl)((1-(4-(2,4-dioxotetrahydropyrimidin-1(2H)-yl)benzyl)piperidin-4-yl)methyl)amino)phenyl)cyclopropane-1-carbonitrile] | 6.00 to 6.30 | 6.30 to 7.00 | 6.30 to 7.00 | 6.00 to 6.30 |  |  |  | 
2 | O=C1CCC(c2ccc(CN3CCC(n4cc(NC(=O)c5coc(-c6ccnc(NCC(F)(F)F)c6)n5)c(C(F)F)n4)CC3)cc2F)C(=O)N1 (stereo not drawn) [GT-04087, N-(3-(difluoromethyl)-1-(1-(4-(2,6-dioxopiperidin-3-yl)-3-fluorobenzyl)piperidin-4-yl)-1H-pyrazol-4-yl)-2-(2-((2,2,2-trifluoroethyl)amino)pyridin-4-yl)oxazole-4-carboxamide] |  |  |  |  | 6.00 to 6.30 | 7.00 to 7.30 | A (A is defined as 0% ≤ substrate protein remaining % ≤ 80%) | pIC50 [6]: 8.00 to 9.00; pIC50 [8]: 6.00 to 6.30; pIC50 [9]: 7.30 to 8.00
3 | Cn1ncc(-c2nc(NC3CCN(Cc4ccc(C5CCC(=O)NC5=O)cc4)CC3)ncc2Cl)c1CC1CC1 (stereo not drawn) [GT-04050, 3-(4-((4-((5-chloro-4-(5-(cyclopropylmethyl)-1-methyl-1H-pyrazol-4-yl)pyrimidin-2-yl)amino)piperidin-1-yl)methyl)phenyl)piperidine-2,6-dione] |  |  |  |  | 7.30 to 8.00 |  | A (A is defined as 0% ≤ substrate protein remaining % ≤ 80%) | pIC50 [9]: 6.30 to 7.00
4 | N#CC1(CNc2nc(-c3cc(NC4CCN(Cc5ccc(C6CCC(=O)NC6=O)cc5)CC4)ncc3Cl)cs2)CCOCC1 (stereo not drawn) [GT-04074, 4-(((4-(5-chloro-2-((1-(4-(2,6-dioxopiperidin-3-yl)benzyl)piperidin-4-yl)amino)pyridin-4-yl)thiazol-2-yl)amino)methyl)tetrahydro-2H-pyran-4-carbonitrile] |  |  |  |  |  |  | A (A is defined as 0% ≤ substrate protein remaining % ≤ 80%) | 
5 | Cn1ncc(-c2nc(NC3CCN(Cc4ccc(C5CCC(=O)NC5=O)c(F)c4)CC3)ncc2Cl)c1CC1CC1 (stereo not drawn) [GT-04051, 3-(4-((4-((5-chloro-4-(5-(cyclopropylmethyl)-1-methyl-1H-pyrazol-4-yl)pyrimidin-2-yl)amino)piperidin-1-yl)methyl)-2-fluorophenyl)piperidine-2,6-dione] |  |  |  |  | 6.30 to 7.00 | 6.00 to 6.30 | A (A is defined as 0% ≤ substrate protein remaining % ≤ 80%) | pIC50 [6]: 6.00 to 6.30; pIC50 [8]: 6.00 to 6.30
6 | C[C@]12CC[C@H](O)CC1=CC[C@@H]1[C@@H]2CC[C@]2(C)C(c3cccnc3)=CC[C@@H]12 [abiraterone] | < 5.00 | < 5.00 | < 5.00 | < 5.00 | < 5.00 |  |  | 
7 | O=C(NC1CCNCC1)c1[nH]ncc1NC(=O)c1c(Cl)cccc1Cl [AT7519, reference compound] |  |  |  |  | 6.00 to 6.30 | 6.00 to 6.30 |  | pIC50 [6]: 6.00 to 6.30; pIC50 [8]: 6.30 to 7.00; pIC50 [9]: 6.30 to 7.00
8 | Cc1ccc(-c2c(C)noc2C)cc1N(CC1CCN(Cc2ccc(N3CCC(=O)NC3=O)cc2F)CC1)c1ccc(C2(C#N)CC2)cc1 [GT-04973, 1-(4-((5-(3,5-dimethylisoxazol-4-yl)-2-methylphenyl)((1-(4-(2,4-dioxotetrahydropyrimidin-1(2H)-yl)-2-fluorobenzyl)piperidin-4-yl)methyl)amino)phenyl)cyclopropane-1-carbonitrile] | 6.00 to 6.30 | 6.00 to 6.30 | 6.30 to 7.00 | 6.00 to 6.30 |  |  |  | 
9 | Nc1ncnc2c1c(-c1ccc(Oc3ccccc3)cc1)nn2C1CCN(Cc2ccc(C3CCC(=O)NC3=O)c(F)c2)CC1 (stereo not drawn) [GT-03508, 3-(4-((4-(4-amino-3-(4-phenoxyphenyl)-1H-pyrazolo[3,4-d]pyrimidin-1-yl)piperidin-1-yl)methyl)-2-fluorophenyl)piperidine-2,6-dione] |  |  |  |  |  | 6.30 to 7.00 |  | inhibition at 0.5 µM ([11]; at 0.5µM, read-out: Inhibition rate (%) at 0.5µM): 30 to 40%; inhibition at 2 µM ([11]; at 2 µM, read-out: Inhibition rate (%) at 2 µM): 60 to 80%; pIC50 ([12]; SU-DHL-6, CCK-8, 72 hours): 6.00 to 6.30
10 | C=CC(=O)N1CCC[C@@H](n2nc(-c3ccc(Oc4ccccc4)cc3)c3c(N)ncnc32)C1 [ibrutinib, Ibrutinib, reference compound] |  |  |  |  |  |  |  | pIC50 [13]: < 5.00; pIC50 [14]: 6.00 to 6.30; pIC50 [15]: < 5.00; pIC50 ([12]; SU-DHL-6, 72 h): 6.30 to 7.00; pIC50 ([7]; TMD8, 72 h): < 5.00; pIC50 [16]: < 5.00; pIC50 [17]: 6.30 to 7.00
11 | Cc1ccc(-c2c(C)noc2C)cc1N(CC1CCN(Cc2ccc(N3CCC(=O)NC3=O)c(F)c2)CC1)c1ccc(C2(C#N)CC2)cc1 [GT-04843, 1-(4-((5-(3,5-dimethylisoxazol-4-yl)-2-methylphenyl)((1-(4-(2,4-dioxotetrahydropyrimidin-1(2H)-yl)-3-fluorobenzyl)piperidin-4-yl)methyl)amino)phenyl)cyclopropane-1-carbonitrile] | 6.00 to 6.30 | 6.30 to 7.00 | 6.30 to 7.00 | 6.00 to 6.30 |  |  |  | 
